CN1CCOC(c2ccccc2)c2ccccc2C1.Cl (stereo not drawn)
solubility (mole fraction)
Settings | in acetone | in ethanol | in isobutanol | in isopropanol | in methanol | in n-butanol | in n-propanol | in water
273.15 K | 7.2e-05 | 0.00136 | 0.000415 | 0.000136 | 0.00515 | 0.000205 | 0.000291 | 0.000951
278.15 K | 8.7e-05 | 0.00163 | 0.000524 | 0.000167 | 0.00566 | 0.000245 | 0.000328 | 0.00106
283.15 K | 0.000107 | 0.00198 | 0.000635 | 0.000206 | 0.00632 | 0.000287 | 0.000387 | 0.00124
288.15 K | 0.000128 | 0.00247 | 0.000797 | 0.000251 | 0.00692 | 0.000369 | 0.000495 | 0.00144
293.15 K | 0.000151 | 0.0029 | 0.000955 | 0.00032 | 0.00764 | 0.000463 | 0.000652 | 0.00167
298.15 K | 0.000182 | 0.00337 | 0.00116 | 0.000407 | 0.00856 | 0.000605 | 0.000836 | 0.00199
303.15 K | 0.000215 | 0.00402 | 0.00144 | 0.000494 | 0.00951 | 0.000776 | 0.00106 | 0.00234
308.15 K | 0.000265 | 0.00473 | 0.00175 | 0.000608 | 0.0105 | 0.000986 | 0.00134 | 0.00273
313.15 K | 0.000312 | 0.00559 | 0.00214 | 0.000752 | 0.0115 | 0.00125 | 0.0017 | 0.00317
318.15 K | 0.000373 | 0.00654 | 0.0026 | 0.000935 | 0.0128 | 0.00159 | 0.00213 | 0.00369
323.15 K | 0.000445 | 0.00795 | 0.00321 | 0.00114 | 0.0143 | 0.00198 | 0.00267 | 0.00426
